Measurements from patent publication US20110008471A1, “SYNERGISTIC ANTIPARASITIC COMPOSITIONS AND SCREENING METHODS” (TyraTech, Inc., priority 2007, published 2011).

Assays:
[1] = target: T1, Tyramine receptor (TyrR) (Drosophila melanogaster, UniProt P22270); assay: Tyramine receptor binding affinity in cells expressing TyrR
T1 construct: expressed in transfected cells; host or cells: model cells in culture
T1 sequence (P22270 27-601): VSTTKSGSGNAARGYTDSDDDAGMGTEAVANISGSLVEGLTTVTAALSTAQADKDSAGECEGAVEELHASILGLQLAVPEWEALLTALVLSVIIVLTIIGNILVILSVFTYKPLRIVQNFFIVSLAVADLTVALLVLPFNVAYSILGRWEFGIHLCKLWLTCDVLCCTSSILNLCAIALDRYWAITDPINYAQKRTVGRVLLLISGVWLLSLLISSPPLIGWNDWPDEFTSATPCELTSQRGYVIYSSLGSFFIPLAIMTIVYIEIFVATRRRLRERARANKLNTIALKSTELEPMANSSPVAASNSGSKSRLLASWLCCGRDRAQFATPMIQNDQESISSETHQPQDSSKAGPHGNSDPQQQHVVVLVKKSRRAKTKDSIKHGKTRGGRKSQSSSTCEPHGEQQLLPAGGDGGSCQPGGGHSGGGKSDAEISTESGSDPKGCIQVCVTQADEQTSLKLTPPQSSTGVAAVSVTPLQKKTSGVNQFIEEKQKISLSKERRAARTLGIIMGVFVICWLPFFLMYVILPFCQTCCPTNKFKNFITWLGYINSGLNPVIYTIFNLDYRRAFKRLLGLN
Protocol: In some embodiments, a method of selecting a composition for use in treating a parasitic infection includes the following. A cell expressing a tyramine receptor is provided and is contacted with test compounds. The receptor binding affinity of the compounds is measured. At least one parameter selected from the following parameters is measured: intracellular cAMP level, and intracellular Ca^2+ level. A first compound for the composition is identified, which is capable of altering at least one of the parameters, and which has a high receptor binding affinity for the tyramine receptor; and a second compound for the composition is identified, which is capable of altering at least one of the parameters, and which has a low receptor binding affinity for the tyramine receptor. A composition is selected that includes the first and second compounds.
As used herein, the term “receptor binding affinity” refers to an interaction between a composition or component, e.g., compound, and a receptor binding site. The interaction between a composition or component, and the receptor binding site, can be identified as specific or non-specific. In some embodiments, the specificity of an interaction between a composition or component, and a TyrR binding site, can be determined in the following manner. A wild type fly (Drosophila melanogaster) and a mutant fly are provided, where the mutant fly lacks a TyrR. The wild type and mutant flies are exposed to a composition or component of interest. […] If the exposure negatively affects the wild type fly and the mutant fly, then the treatment with the composition or component of interest can be said to be non-specific for the TyrR.
A “high receptor binding affinity” can be a specific interaction between a composition or component, and the receptor binding site.
A “low receptor binding affinity” can be a non-specific interaction between a composition or component, and the receptor binding site. […] In some embodiments, a low receptor binding affinity is found when the effective concentration at which tyramine binding is inhibited by 50% (EC50) is greater than about 500 μM, 625 μM, 750 μM, 875 μM, 1000 μM, 1125 μM, or 1250 μM.
A receptor gene encoding the Tyramine receptor (TyrR) has been isolated from the American cockroach, fruit fly, mosquito, and other organisms. The present subject matter provides methods of utilizing the TyrR protein expressed in cells to screen for compounds useful for treating parasitic infections.
(§1) In the present Example, the genes encoding TyrR were incorporated into model cells in culture that mimic receptors in insects. The screening process uses the cultured cells in combination with [Ca^2+]i and [cAMP]i measuring assays to quantitatively determine effectiveness of test compound to treat parasitic infections. The screening process allows for identification of compounds that produce highly efficacious anti-parasitic compositions.
(§2) The assay steps are as follows. A cell expressing a tyramine receptor is contacted with a test compound and the receptor binding affinity of the test compound is measured. Cells which can be used include, for example, HEK293 cells, COS cells, Drosophila Schneider or S2 cells, SF9, SF21, T.ni cells, or the like. cAMP and/or Ca^2+ levels within the cell are also monitored and any changes from contacting the test compound with the cell are noted for each compound tested. […] A composition for use in treating a parasitic formulation can then be selected that includes a plurality of the identified compounds. In particular, the composition can comprise at least one compound identified as having a high receptor binding affinity for the tyramine receptor as well as an ability to effect change in cAMP and/or Ca^2+ levels within the cell and at least one additional compound identified as having a low receptor binding affinity for the tyramine receptor as well as an ability to effect change in cAMP and/or Ca^2+ levels within the cell.

[2] = target: T1, Tyramine receptor (TyrR); assay: Intracellular Ca2+ level in cells expressing TyrR; type: cell-based
[3] = target: T1, Tyramine receptor (TyrR); assay: Intracellular cAMP level in cells expressing TyrR; type: cell-based
Excerpt: as §1, §2

[4] = tested on: H. nana; assay: Anti-parasitic effect against H. nana in vivo in infected Swiss albino mice (egg count, cure rate); set-up: species or system Hymenolepsis nana; conditions: for Egg Count (X ± SD), Pre Treatment (Base Line Data): infected mice, before 400 mg/kg oral daily for 5 days;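 as to all read-outs here: fecal egg counts per mouse in groups of 15, controls got soybean oil vehicle alone, cure judged 3 days after final dose by egg reduction and no adult intestinal worms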
[5] = 400 mg/kg oral daily for 5 days
[6] = 3 Days after last dose, 400 mg/kg oral daily for 5 days
[7] = 100 mg/kg oral daily for 5 days
[8] = Tested dose 100 mg/kg b.w. orally daily for 5 successive days

Row | Structure (SMILES) | Tyramine Receptor Binding Affinity (High or Low) [1] | Affects Intracellular Ca^2+ (Yes or No) [2] | Affects Intracellular cAMP (Yes or No) [3] | other results
1 | C=CCc1ccc(O)c(OC)c1 [Eugenol] | Low | Yes | No | –
2 | Cc1ccc(C(C)C)cc1O [Rx4, carvacrol] | – | – | – | Egg Count (X ± SD), During Treatment 1st Day [4, 5]: 5 ± 0.6; Egg Count (X ± SD), During Treatment 2nd Day [4, 5]: 2.2 ± 3.4; Egg Count (X ± SD), During Treatment 3rd Day [4, 5]: 1 ± 1.9; Egg Count (X ± SD), During Treatment 4th Day [4, 5]: 0.9 ± 1.2; Egg Count (X ± SD), During Treatment 5th Day [4, 5]: 2 ± 2; Egg Count (X ± SD), Post treatment 2 Days after last dose [4, 5]: 1.3 ± 1.1; Cure rate (%) [4, 6]: 28.6%; Positiveity rate (%) [4, 6]: 71.4%; Egg Count (X ± SD), Pre Treatment (Base Line Data) [4]: 3 ± 1
3 | CC(C)=CCC/C(C)=C/CO [Rx5, geraniol] | – | – | – | Egg Count (X ± SD), During Treatment 1st Day [4, 5]: 14 ± 13.9; Egg Count (X ± SD), During Treatment 2nd Day [4, 5]: 1.4 ± 2.1; Egg Count (X ± SD), During Treatment 3rd Day [4, 5]: 4.1 ± 9.6; Egg Count (X ± SD), During Treatment 4th Day [4, 5]: 2.6 ± 7.4; Egg Count (X ± SD), During Treatment 5th Day [4, 5]: 2.3 ± 3.6; Egg Count (X ± SD), Post treatment 2 Days after last dose [4, 5]: 0.5 ± 0.9; Cure rate (%) [4, 6]: 66.6%; Positiveity rate (%) [4, 6]: 33.4%; cure rate ([4]; H. nana infected mice, 400 mg/kg body weight orally daily for 5 successive days, 3rd day after last dose): 66.6%; Egg Count (X ± SD), Pre Treatment (Base Line Data) [4]: 3 ± 1; Worms absent or dead in mice ([4]; treated for 5 consecutive days, 400 mg/kg, post treatment dissection): 67%
4 | CC12CCC(CC1)C(C)(C)O2 [Rx6, cineol] | – | – | – | Egg Count (X ± SD), During Treatment 1st Day [4, 5]: 5 ± 9.5; Egg Count (X ± SD), During Treatment 2nd Day [4, 5]: 3.8 ± 14.3; Egg Count (X ± SD), During Treatment 3rd Day [4, 5]: 1 ± 1.2; Egg Count (X ± SD), During Treatment 4th Day [4, 5]: 1.8 ± 1.7; Egg Count (X ± SD), During Treatment 5th Day [4, 5]: 1.6 ± 1.5; Egg Count (X ± SD), Post treatment 2 Days after last dose [4, 5]: 2.5 ± 3.5; Cure rate (%) [4, 6]: 54.5%; Positiveity rate (%) [4, 6]: 45.5%; Egg Count (X ± SD), Pre Treatment (Base Line Data) [4]: 3.1 ± 1.2
5 | Cc1ccc(C(C)C)cc1 [Rx10, p-cymene] | Low | Yes | Yes | tyramine receptor binding affinity [1]: low (a low receptor binding affinity is found when the equilibrium dissociation constant (Kd) is greater than about 100 nM); Cure rate (%) [4, 7]: 13.3%; Cure rate (%) [4, 8]: 13.3%
6 | Cc1ccc(C(C)C)c(O)c1 [Rx11, thymol] | High | Yes | No | Cure rate (%) [4, 7]: 33.3%; Cure rate (%) [4, 8]: 33.3%
7 | C/C=C/c1ccc(OC)cc1 [anethole] | Low | Yes | Yes | –
8 | OCc1ccccc1 [benzyl alcohol] | Low | No | Yes | –
9 | CC12CCC(CC1)C(C)(C)O2 [cineol] | Low | Yes | Yes | –
10 | OCC=Cc1ccccc1 [cinnamyl alcohol] | Low | Yes | No | –
11 | C=C(C)[C@H]1CC=C(C)CC1 [d-limonene] | – | Yes | – | –
12 | CC(C)=CCC/C(C)=C/CO [geraniol] | High | Yes | Yes | –
13 | C=CC(C)(O)CCC=C(C)C (stereo not shown) [linalool] | High | Yes | No | Cure rate (%) [4, 7]: 23.3%; Cure rate (%) [4, 8]: 23.3%
14 | CCC(=O)OCCc1ccccc1 [phenethyl proprionate] | Low | No | Yes | –
15 | CCCCCCCCCCCCOS(=O)(=O)[O-].[Na+] [sodium lauryl sulfate] | Low | No | No | –
16 | CCC(C)(O)CCCC(C)C (stereo not shown) [tetrahydrolinalool] | High | Yes | Yes | –
17 | COc1cc(C=O)ccc1O [vanillin] | – | – | No | –
18 | CC1=CCC2CC1C2(C)C (stereo not drawn) [α-pinene] | Low | No | No | Cure rate (%) [4, 7]: 25.0%; Cure rate (%) [4, 8]: 25.0%
